Assay [1] has as its target T1, PI3K (p110α) (Homo sapiens, UniProt P42336).
T1 construct: purchased Millipore 14-602-K
Description: ADP-Glo Assay I, in vitro enzyme activity. The class given is biochemical. The settings on record: 0.33 nM PI3Kalpha. The method, then:
The test compounds were diluted with a three-fold concentration gradient, and 10 concentrations (10000 nM to 0.5 nM) were obtained in total.
50 nL of the test compounds of the present invention was transferred to a reaction plate (PerkinElmer #6007299), and added with 3 μL of an enzyme/substrate mixture (0.33 nM PI3Kalpha, Millipore #14-602-K/166.5 μM PIP2); after incubation for 20 min, 2 μL of an ATP solution (100 μM) was added to initiate the reaction; after 2 hours of reaction at room temperature, the kinase reaction was stopped by adding 5 μL ADP-Glo reagent, followed by incubation at room temperature for 60 min, allowing the remaining unreacted ATP to be completely digested; and the resulting solution was added with 10 μL of a kinase detection reagent and incubated at room temperature for 40 min, and then the […] was read on Envision. PIP2, ATP, the ADP-Glo reagent, and the kinase assay reagents are all from an ADP-Glo Kinase Assay Kit (Promega #V1792).
IC50 was calculated using the standard 4-parameter fitting method (Model 205, XL-fit, iDBS).

Assay [2] addresses PI3Kδ (Homo sapiens, UniProt O00329). Description: ADP-Glo Assay II, PI3Kδ. The class given is biochemical. The conditions noted are these: read-out: IC50 for inhibition of PI3Kδ activity. As for the experimental part:
1) The compound was diluted using Echo from Labcyte company, 50 nL of the compound was transferred into an assay plate, and centrifuged at a speed of 1000 rpm for 10 sec.
2) A kinase/lipid substrate mixed solution and a kinase reaction buffer/lipid substrate mixed solution were prepared; the kinase/lipid substrate mixed solution was added into columns 3-24 of the assay plate, 3 μL per well; the kinase reaction buffer/lipid substrate mixed solution was added into columns 1-2 of the assay plat, 3 μL per well; and the plate was centrifuged at a speed of 1000 rpm for 10 sec.
3) An ATP solution was prepared, and added into the assay plate, 2 μL per well; the plate was centrifuged at a speed of 1000 rpm for 10 sec, shaken and mixed in 2nd gear mode on a plate shaker for 1 min, further centrifuged at a speed of 1000 rpm for 10 sec, and incubated for 120 min at 23° C. […]
5) A kinase detection reagent was prepared, added into the assay plate, 10 μL per well; the plate was centrifuged at a speed of 1000 rpm for 10 sec, shaken and mixed in 2nd gear mode on a plate shaker for 1 min, further centrifuged at a speed of 1000 rpm for 10 sec, incubated for 30 min at 23° C.; and then read on the multi-marker detector Envision.
IC50 results were analyzed by XLfit5 (Formula 205) of IDBS company.
Background: In ADP-Glo the light output rises with the ADP produced.

Assay [3] relates to human gastric cancer ST-02-0013. The assay can be described thus: In vivo pharmacodynamics, subcutaneous xenograft tumor model of human gastric cancer ST-02-0013. The arrangement: species or system BALB/c nude mice. As for the experimental part:
The studies were conducted to examine if the test drugs have in vivo efficacy in the human colon cancer CO-04-0032 animal model and the gastric cancer ST-02-0013 animal model. The descriptions about the animal feeding, feed ingredients, experimental observation, experimental indexes, experimental termination, as well as data analysis in the tests were as follows:
Animal Grouping: The animals were weighed and the tumor volume was measured prior to administration. The animals were randomly grouped according to tumor volume (randomized block design).
Experimental Indexes: The experimental indexes were used to examine whether tumor growth is inhibited, delayed or cured. Tumor diameter was measured twice a week with a vernier caliper. The tumor volume was calculated by the formula: V=0.5a×b^2, wherein a and b represent the long diameter and short diameter of a tumor, respectively. Tumor growth inhibition (TGI) of a compound was evaluated with T-C (day) and T/C (%). […]
Data Analysis: One-way ANOVA was used for comparison of three or more groups. […] All data was analyzed using SPSS 17.0. p<0.05 indicated a significant difference. […]
For orientation: Xenograft models place foreign cells or tissue in a host animal.

The term IC50 denotes the midpoint of a concentration-inhibition curve.

PI3Kδ, sequence (O00329 whole entry): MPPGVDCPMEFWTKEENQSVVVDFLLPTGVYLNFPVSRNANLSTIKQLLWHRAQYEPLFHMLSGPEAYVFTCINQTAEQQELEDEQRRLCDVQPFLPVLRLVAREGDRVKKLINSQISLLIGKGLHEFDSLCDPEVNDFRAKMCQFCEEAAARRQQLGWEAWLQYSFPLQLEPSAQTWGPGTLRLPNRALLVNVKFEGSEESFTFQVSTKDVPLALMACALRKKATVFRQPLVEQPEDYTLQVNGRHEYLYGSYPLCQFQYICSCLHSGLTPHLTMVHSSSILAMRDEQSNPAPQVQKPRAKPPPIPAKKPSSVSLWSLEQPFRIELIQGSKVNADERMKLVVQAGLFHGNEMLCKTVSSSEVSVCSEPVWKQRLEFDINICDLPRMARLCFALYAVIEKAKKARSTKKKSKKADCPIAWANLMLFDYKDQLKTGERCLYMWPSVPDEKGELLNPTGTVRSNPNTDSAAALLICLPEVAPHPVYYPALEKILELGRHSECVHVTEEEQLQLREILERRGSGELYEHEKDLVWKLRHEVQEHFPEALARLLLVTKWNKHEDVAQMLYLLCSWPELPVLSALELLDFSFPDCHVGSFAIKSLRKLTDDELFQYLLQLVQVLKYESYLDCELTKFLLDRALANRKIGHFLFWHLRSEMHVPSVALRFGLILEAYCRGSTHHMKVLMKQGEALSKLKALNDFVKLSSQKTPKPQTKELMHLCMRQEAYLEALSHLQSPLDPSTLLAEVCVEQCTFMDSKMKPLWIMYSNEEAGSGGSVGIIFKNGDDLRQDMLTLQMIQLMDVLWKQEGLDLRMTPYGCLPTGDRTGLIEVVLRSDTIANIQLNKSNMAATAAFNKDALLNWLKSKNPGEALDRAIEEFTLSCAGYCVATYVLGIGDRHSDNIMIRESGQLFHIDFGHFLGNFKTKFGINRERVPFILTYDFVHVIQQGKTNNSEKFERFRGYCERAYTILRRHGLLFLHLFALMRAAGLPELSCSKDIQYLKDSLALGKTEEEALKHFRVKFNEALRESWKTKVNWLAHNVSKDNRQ
PI3Kδ, sequence (P27986 whole entry partner): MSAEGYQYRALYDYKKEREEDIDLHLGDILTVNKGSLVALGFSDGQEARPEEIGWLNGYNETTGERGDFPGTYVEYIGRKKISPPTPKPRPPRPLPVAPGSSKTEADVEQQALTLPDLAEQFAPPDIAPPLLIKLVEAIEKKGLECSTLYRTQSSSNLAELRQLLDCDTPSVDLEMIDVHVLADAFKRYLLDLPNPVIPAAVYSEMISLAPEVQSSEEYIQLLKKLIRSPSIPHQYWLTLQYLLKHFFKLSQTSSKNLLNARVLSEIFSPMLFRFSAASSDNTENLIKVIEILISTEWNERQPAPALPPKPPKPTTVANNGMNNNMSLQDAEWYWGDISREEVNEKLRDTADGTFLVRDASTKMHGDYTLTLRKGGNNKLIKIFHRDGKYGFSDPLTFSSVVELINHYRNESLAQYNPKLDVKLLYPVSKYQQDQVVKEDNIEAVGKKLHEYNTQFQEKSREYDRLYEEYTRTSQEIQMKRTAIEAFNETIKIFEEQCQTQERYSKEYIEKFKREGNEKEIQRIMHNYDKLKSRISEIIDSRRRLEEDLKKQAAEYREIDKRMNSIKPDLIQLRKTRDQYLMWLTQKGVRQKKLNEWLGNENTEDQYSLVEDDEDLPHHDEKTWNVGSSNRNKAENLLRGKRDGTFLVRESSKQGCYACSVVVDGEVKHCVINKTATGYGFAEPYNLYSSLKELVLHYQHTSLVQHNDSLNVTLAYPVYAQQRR
T1 sequence (P42336 whole entry): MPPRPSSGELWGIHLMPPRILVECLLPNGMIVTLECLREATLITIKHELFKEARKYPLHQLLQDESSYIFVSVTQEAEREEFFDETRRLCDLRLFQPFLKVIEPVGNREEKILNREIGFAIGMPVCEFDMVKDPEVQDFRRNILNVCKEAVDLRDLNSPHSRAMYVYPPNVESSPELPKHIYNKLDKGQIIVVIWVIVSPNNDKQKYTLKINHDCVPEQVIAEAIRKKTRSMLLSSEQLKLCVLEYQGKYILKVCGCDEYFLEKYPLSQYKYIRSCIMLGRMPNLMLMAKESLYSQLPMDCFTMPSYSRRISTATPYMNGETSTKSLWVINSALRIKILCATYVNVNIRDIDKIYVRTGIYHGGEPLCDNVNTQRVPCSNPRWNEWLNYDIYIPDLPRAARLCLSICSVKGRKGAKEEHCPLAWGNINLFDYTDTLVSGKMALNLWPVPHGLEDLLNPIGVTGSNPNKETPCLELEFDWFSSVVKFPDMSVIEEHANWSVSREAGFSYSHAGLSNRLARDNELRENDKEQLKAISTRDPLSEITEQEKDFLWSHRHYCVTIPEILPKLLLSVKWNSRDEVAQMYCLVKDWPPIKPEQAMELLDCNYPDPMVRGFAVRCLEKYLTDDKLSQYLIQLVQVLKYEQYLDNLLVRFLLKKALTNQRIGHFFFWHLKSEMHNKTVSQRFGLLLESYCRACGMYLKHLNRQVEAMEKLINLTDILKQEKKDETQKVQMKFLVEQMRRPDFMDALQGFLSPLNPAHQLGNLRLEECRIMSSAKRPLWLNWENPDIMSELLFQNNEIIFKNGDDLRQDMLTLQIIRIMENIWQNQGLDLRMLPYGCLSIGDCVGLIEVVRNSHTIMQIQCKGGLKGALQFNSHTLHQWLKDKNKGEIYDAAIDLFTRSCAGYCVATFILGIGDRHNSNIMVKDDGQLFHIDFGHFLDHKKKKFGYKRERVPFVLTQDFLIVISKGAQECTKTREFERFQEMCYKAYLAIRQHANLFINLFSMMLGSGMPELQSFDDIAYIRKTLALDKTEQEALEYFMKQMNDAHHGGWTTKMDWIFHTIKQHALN
T1 sequence (P27986 whole entry partner): as the sequence (P27986 whole entry partner) above

On to `COc1ncc(-c2ccc3ncc(OCCN(C)C)c(=O)n3c2)cc1NS(=O)(=O)c1ccc(F)cc1Cl` [Compound 1], for which the IC50 was no more than 1 nM in assay [1] and 0.5 ± 0.1 nM in assay [2]. In addition, the “increase in tumor volume” value in assay [3] (from day 15 to day 30 of the administration, ST-02-0013) was “almost no increase in tumor volume”. Besides, in assay [3] (gastric cancer ST-02-0013), the “anti-tumor activity compared to the positive control drug BKM120” value is listed as “more excellent anti-tumor activity”.
